Results taken from ChEMBL document CHEMBL4422692, “Plant-Based Modulators of Endocannabinoid Signaling” (J Nat Prod, 2019).

Key:
[1] = target: T1, N-acylethanolamine-hydrolyzing acid amidase (Homo sapiens, UniProt Q02083); experiment: Inhibition of recombinant human NAAA expressed in HEK293 cells using [14C]-N-palmitoylethanolamine as substrate measured after 30 mins by beta-counting method; format: cell-based
T1 sequence (Q02083 whole entry): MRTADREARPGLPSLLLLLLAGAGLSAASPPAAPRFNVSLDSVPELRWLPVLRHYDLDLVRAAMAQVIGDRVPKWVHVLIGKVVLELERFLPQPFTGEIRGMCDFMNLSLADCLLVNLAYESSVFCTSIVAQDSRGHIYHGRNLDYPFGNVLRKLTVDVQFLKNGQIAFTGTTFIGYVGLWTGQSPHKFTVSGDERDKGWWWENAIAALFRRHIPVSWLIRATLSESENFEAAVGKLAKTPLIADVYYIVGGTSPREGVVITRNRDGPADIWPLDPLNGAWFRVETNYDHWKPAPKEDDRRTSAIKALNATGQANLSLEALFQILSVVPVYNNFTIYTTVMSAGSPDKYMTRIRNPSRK

[2] = target: T2, Diacylglycerol lipase-alpha (Homo sapiens, UniProt Q9Y4D2); experiment: Inhibition of recombinant human DAGLalpha expressed in COS7 cells using [14C]-oleoyl-2-arachidonoyl-glycerol as substrate measured after 20 mins by beta-counting method; format: cell-based
T2 sequence (Q9Y4D2 whole entry): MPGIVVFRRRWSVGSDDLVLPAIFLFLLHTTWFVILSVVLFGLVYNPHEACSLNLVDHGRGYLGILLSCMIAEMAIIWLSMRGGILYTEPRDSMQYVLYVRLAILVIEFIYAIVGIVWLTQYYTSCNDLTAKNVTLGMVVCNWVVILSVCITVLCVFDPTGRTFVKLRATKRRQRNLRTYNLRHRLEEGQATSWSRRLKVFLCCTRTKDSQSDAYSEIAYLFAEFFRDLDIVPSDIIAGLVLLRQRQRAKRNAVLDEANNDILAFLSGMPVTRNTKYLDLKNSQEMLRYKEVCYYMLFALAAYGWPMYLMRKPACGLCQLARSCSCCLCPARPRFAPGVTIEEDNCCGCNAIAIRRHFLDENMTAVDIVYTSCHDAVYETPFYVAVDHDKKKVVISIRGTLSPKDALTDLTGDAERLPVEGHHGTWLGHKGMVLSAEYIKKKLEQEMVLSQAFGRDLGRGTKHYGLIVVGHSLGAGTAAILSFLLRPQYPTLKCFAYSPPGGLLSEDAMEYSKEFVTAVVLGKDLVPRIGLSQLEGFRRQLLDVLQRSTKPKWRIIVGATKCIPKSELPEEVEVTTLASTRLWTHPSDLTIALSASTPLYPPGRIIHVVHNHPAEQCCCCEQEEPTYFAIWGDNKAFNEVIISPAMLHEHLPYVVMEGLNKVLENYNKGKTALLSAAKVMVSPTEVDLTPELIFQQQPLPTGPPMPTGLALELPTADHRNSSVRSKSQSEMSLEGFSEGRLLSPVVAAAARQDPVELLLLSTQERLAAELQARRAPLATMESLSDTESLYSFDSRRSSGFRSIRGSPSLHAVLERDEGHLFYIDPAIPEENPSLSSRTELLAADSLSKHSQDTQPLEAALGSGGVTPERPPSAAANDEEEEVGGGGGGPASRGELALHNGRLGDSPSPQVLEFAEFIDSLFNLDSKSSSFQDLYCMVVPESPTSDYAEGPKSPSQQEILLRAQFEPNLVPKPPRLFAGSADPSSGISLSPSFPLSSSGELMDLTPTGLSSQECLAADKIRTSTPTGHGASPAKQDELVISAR

[3] = target: T3, N-acylethanolamine-hydrolyzing acid amidase (Homo sapiens) (UniProt Q02083); experiment: Inhibition of recombinant human NAAA expressed in HEK293 cells at 100 uM using [14C]-N-palmitoylethanolamine as substrate measured after 30 mins by beta-counting method relative to control; format: cell-based
T3 sequence (whole entry): T1 sequence (Q02083 whole entry)

[4] = Inhibition of MAGL in African green monkey COS cell homogenates using [3H]-arachidonoylglycerol as substrate measured after 20 mins by scintillation counting method; format: tissue-based, Chlorocebus aethiops
[5] = target: T4, Diacylglycerol lipase-alpha (Homo sapiens) (UniProt Q9Y4D2); experiment: Inhibition of recombinant human DAGLalpha expressed in COS7 cells at 50 uM using [14C]-oleoyl-2-arachidonoyl-glycerol as substrate measured after 20 mins by beta-counting method relative to control; format: cell-based
T4 sequence (whole entry): T2 sequence (Q9Y4D2 whole entry)

[6] = species: Chlorocebus aethiops; experiment: Inhibition of MAGL in African green monkey COS cell homogenates at 50 uM using [3H]-arachidonoylglycerol as substrate measured after 20 mins by scintillation counting method relative to control; format: tissue-based
[7] = tested on: RBL-2H3; experiment: Inhibition of [14C]-AEA uptake in rat RBL2H3 cells by scintillation counting method; format: functional, cell-based
[8] = target: T5, Fatty-acid amide hydrolase 1 (Rattus norvegicus, UniProt P97612); experiment: Inhibition of FAAH in rat brain membranes using [14C]-AEA as substrate measured after 30 mins by scintillation counting method; format: cell membranes
T5 sequence (P97612 whole entry): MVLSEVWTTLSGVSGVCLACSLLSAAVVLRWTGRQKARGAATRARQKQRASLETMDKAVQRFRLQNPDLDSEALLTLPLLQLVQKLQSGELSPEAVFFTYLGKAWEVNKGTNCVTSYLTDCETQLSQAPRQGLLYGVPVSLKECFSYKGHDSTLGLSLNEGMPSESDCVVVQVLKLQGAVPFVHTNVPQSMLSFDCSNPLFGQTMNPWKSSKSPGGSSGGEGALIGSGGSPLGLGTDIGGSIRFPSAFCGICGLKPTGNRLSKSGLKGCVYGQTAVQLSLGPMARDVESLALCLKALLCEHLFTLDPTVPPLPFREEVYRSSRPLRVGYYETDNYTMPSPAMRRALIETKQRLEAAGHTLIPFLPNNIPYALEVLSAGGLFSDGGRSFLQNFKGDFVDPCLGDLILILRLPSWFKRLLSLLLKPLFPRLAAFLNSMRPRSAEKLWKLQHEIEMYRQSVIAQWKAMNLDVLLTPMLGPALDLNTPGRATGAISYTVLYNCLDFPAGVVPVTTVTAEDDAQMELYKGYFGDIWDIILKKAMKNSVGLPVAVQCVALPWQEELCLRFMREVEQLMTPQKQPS

[9] = target: T6, Fatty-acid amide hydrolase 1 (Rattus norvegicus) (UniProt P97612); experiment: Inhibition of FAAH in rat brain membranes at 50 uM using [14C]-AEA as substrate measured after 30 mins by scintillation counting method relative to control; format: cell membranes
T6 sequence (whole entry): T5 sequence (P97612 whole entry)

[10] = tested on: RBL-2H3; experiment: Inhibition of [14C]-AEA uptake in rat RBL2H3 cells at 25 uM by scintillation counting method relative to control; format: functional
[11] = target: T3, N-acylethanolamine-hydrolyzing acid amidase (Homo sapiens); experiment: Inhibition of recombinant human NAAA expressed in HEK293 cells at 50 uM using [14C]-N-palmitoylethanolamine as substrate measured after 30 mins by beta-counting method relative to control; format: cell-based
[12] = target: T6, Fatty-acid amide hydrolase 1 (Rattus norvegicus); experiment: Inhibition of FAAH in rat brain membranes at 100 uM using [14C]-AEA as substrate measured after 30 mins by scintillation counting method relative to control; format: cell membranes
[13] = target: Cannabinoid receptor 1 (Homo sapiens, UniProt P21554); experiment: Displacement of [3H]-CP55940 from recombinant human CB1 receptor expressed in Sf9 cell membranes co-expressing Galphai3beta1gamma2 measured after 90 mins by scintillation counting method
[14] = target: Cannabinoid receptor 2 (Homo sapiens, UniProt P34972); experiment: Displacement of [3H]-CP55940 from recombinant human CB2 receptor expressed in Sf9 cell membranes co-expressing Galphai3beta1gamma2 measured after 90 mins by scintillation counting method
[15] = species: Chlorocebus aethiops; experiment: Inhibition of MAGL in African green monkey COS cell homogenates at 100 uM using [3H]-arachidonoylglycerol as substrate measured after 20 mins by scintillation counting method relative to control; format: tissue-based
[16] = target: T4, Diacylglycerol lipase-alpha (Homo sapiens); experiment: Inhibition of recombinant human DAGLalpha expressed in COS7 cells at 100 uM using [14C]-oleoyl-2-arachidonoyl-glycerol as substrate measured after 20 mins by beta-counting method relative to control; format: cell-based

Chain of Cannabinoid receptor 1 (P21554 whole entry): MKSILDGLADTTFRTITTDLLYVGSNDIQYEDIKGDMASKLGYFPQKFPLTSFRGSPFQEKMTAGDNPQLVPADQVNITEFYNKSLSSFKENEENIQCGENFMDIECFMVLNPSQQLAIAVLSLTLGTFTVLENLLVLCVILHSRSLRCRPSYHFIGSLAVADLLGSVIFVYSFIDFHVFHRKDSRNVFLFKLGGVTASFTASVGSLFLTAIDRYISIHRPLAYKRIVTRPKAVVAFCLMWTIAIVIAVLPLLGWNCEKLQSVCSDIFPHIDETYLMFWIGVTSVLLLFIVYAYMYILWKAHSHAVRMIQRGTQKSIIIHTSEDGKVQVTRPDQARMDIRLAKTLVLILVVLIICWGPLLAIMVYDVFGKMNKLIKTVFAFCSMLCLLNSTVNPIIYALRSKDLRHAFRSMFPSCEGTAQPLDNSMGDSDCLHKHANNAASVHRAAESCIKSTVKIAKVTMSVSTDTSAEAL
Chain of Cannabinoid receptor 2 (P34972 whole entry): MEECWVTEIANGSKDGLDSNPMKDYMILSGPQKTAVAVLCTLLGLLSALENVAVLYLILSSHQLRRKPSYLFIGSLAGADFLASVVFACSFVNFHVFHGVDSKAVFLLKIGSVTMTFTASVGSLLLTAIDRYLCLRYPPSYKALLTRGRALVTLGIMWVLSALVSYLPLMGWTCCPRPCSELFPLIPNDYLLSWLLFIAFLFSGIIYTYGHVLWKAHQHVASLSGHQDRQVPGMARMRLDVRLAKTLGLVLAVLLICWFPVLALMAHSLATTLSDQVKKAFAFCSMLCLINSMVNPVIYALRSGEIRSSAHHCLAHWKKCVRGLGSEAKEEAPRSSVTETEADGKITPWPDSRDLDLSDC

SMILES: C=C(C)[C@@H]1CCC(C)=C[C@H]1c1c(O)cc(CCCCC)c(C(=O)O)c1O [CANNABIDIOLIC ACID]
- IC50 [1]: 23 µM
- IC50 [2]: 19.4 µM
- Emax [3]: 62.5%
- IC50 [4]: > 50 µM
- Emax [5]: 90.2%
- Emax [6]: 18.5%
- IC50 [7]: > 25 µM
- IC50 [8]: > 50 µM
- Emax [9]: 42.2%
- Emax at 25 µM [10]: 36.3%

SMILES: C=C(C)[C@@H]1CCC(C)=C[C@H]1c1c(O)cc(CCCCC)cc1O [CANNABIDIOL]
- IC50 [1]: > 100 µM
- IC50 [2]: > 100 µM
- IC50 [4]: > 100 µM
- Emax [11]: 47.2%
- Emax [5]: 0%
- Emax [6]: 0%
- IC50 [7]: 25.3 µM
- Emax [9]: 68.6%
- Emax at 25 µM [10]: 49.9%

SMILES: C=C(C)[C@@H]1CCC(C)=C[C@H]1c1c(O)cc(CCC)cc1O [CANNABIDIVARIN]
- Emax [12]: 36.2%
- IC50 [1]: 72.3 µM
- IC50 [2]: 16.6 µM
- IC50 [4]: > 100 µM
- Emax [11]: 54.5%
- Emax [5]: 83.3%
- Ki [13]: 14.7 µM
- IC50 [7]: 21.3 µM
- Ki [14]: 0.574 µM
- IC50 [8]: > 50 µM
- Emax [15]: 2.5%
- Emax at 25 µM [10]: 52.7%

SMILES: CCCCCc1cc(O)c(C/C=C(\C)CCC=C(C)C)c(O)c1C(=O)O [CANNABIGEROLIC ACID]
- IC50 [1]: > 50 µM
- IC50 [2]: 30.5 µM
- Emax [3]: 33.2%
- IC50 [4]: > 50 µM
- IC50 [7]: > 25 µM
- IC50 [8]: > 50 µM
- Emax [9]: 46.2%
- Emax [15]: 17.2%
- Emax at 25 µM [10]: 43.6%
- Emax [16]: 67.6%

SMILES: CCCCCc1cc(O)c(C/C=C(\C)CCC=C(C)C)c(O)c1 [CANNABIGEROL]
- Emax [12]: 44.9%
- IC50 [1]: > 100 µM
- IC50 [2]: > 100 µM
- IC50 [4]: 95.7 µM
- Emax [11]: 19.4%
- Ki [13]: 0.897 µM
- IC50 [7]: 11.3 µM
- IC50 [8]: > 100 µM
- Emax [15]: 54.2%
- Emax at 25 µM [10]: 85.4%
- Emax [16]: 44.8%

SMILES: CCCCCc1cc(O)c2c(c1)OC(C)(C)c1ccc(C)cc1-2 [CANNABINOL]
- IC50 [1]: > 50 µM
- IC50 [2]: > 50 µM
- Emax [3]: 31.4%
- IC50 [4]: > 50 µM
- Emax [5]: 26.9%
- Emax [6]: 31.5%
- Ki [13]: 0.013 µM
- IC50 [7]: 25 µM
- Ki [14]: 0.016 µM
- IC50 [8]: > 50 µM
- Emax [9]: 29.1%
- Emax at 25 µM [10]: 50%

SMILES: CCCCCc1cc2c(c(O)c1C(=O)O)[C@@H]1C=C(C)CC[C@H]1C(C)(C)O2 [DELTA9-TETRAHYDROCANNABINOLIC ACID A]
- IC50 [1]: > 50 µM
- IC50 [2]: 27.3 µM
- Emax [3]: 21.1%
- IC50 [4]: 46 µM
- Emax [5]: 86.2%
- Ki [13]: 0.024 µM
- IC50 [7]: > 25 µM
- Ki [14]: 0.056 µM
- IC50 [8]: > 50 µM
- Emax [9]: 38.8%
- Emax [15]: 86%
- Emax at 25 µM [10]: 34.4%

SMILES: CCCc1cc(O)c2c(c1)OC(C)(C)[C@@H]1CCC(C)=C[C@@H]21 [TETRAHYDROCANNABIVARIN]
- Emax [12]: 26.8%
- IC50 [1]: > 100 µM
- IC50 [2]: > 50 µM
- IC50 [4]: > 50 µM
- Emax [11]: 18.2%
- Emax [5]: 8.8%
- Emax [6]: 18.2%
- IC50 [7]: > 25 µM
- IC50 [8]: > 50 µM
- Emax at 25 µM [10]: 46.9%
